The results in this text go back to article PMC7076013 (Scientific Reports, 2020).

Common to all, as to format: cell-based, human
The test system of experiment [1] is A375 cells. Nature of the experiment: Intracellular ROS/RNS (DHR), A375. The settings on record: A375, 48 h; untreated 22.3 ± 5. How it is done:
(§1) Given that analogue 5 is designed for NO release, the intracellular release of nitric oxide and production of reactive oxygen species (ROS)/reactive nitrogen species (RNS) was measured by means of redox-sensitive dyes — 4-amino-5-methylamino-2′,7′-difluorofluorescein diacetate (DAF) and dihydrorhodamine-123 (DHR) — after exposure for 48 h (Fig. 11). […] It is well documented that highly intensified production of ROS/RNS is connected with extreme cell damage and consequent cell death, whereas moderate ROS production is involved in the regulation of intracellular processes often involved in cell cycle arrest, proliferation, and differentiation[63],[64]. Apart from the moderate intracellular NO release, it was important to evaluate whether 5 released NO extracellularly. The production of NO from a nitrate group is a three-electron reduction process that can happen by a number of possible 2e^– and 1e^– pathways, commonly involving the initial liberation of a nitrite. A common method of detecting the release of NO in the extracellular compartment is the detection of nitrite ions by the Griess reaction, which quantifies the nitrite resulting from the oxidation of NO[66],[67]. […] Introduction of a nitrate moiety was also found to be beneficial in the case of rofecoxib. […]

Experiment [2] relates to 518A2 cells. Description: Fluorescence microscopy of DAPI-stained cells, 518A2. To be noted: 518A2, 72 h. The protocol: (§2) It was observed that the wound in the control of the A375 cells decreased from 172 ± 69 μm to 127 ± 13 μm, compared to the treated cells where it stayed at 177 ± 32 μm. […] (Fig. 10A).To confirm this, the cell proliferation rate was determined after 72 h of incubation in the presence of 5 of the carboxyfluorescein succinimidyl ester (CFSE)-stained cells. […] These findings were further confirmed by fluorescence microscopy of 4′,6-diamidino-2-phenylindole (DAPI)-stained cells (Fig. 10C), for which predominantly large nuclei with scarce nucleoli characteristic for interphase were observed on treatment of A375 cells with 5[60]. In addition, sporadic oblong nuclei with condensed chromatin, typical for apoptosis, were also observed (25 ± 9%). On the other hand in the DAPI-stained 518A2 cells typical apoptotic shrunken nuclei and apoptotic bodies were dominant (60 ± 2%)[61]. The different modes of action on the two melanoma cell lines indicate that cell specific characteristics define the outcome of the treatment with 5. […] Recent data on the compensatory proliferation in response to induced apoptotic cell death in the tumor tissue even favor a nonaggressive approach in the therapy of advanced malignancy.

Experiment [3] deals with 518A2 cells. Nature of the experiment: Intracellular ROS/RNS (DHR), 518A2. The settings on record: 518A2, 48 h; untreated 70.7 ± 5.5. How it is done: as §1
In experiment [4] the test system is 518A2 cells. Description: Scratch (wound healing) test, 518A2. To be noted: 518A2, IC50 dose, 48 h. How it is done: as §2, with “malignancy. […]” for “malignancy.”
(§3) To quantify cell division rate, cells were incubated for 10 min at 37 °C in the presence of […]
(§4) subsequentl y quantified using flow c ytomet r y. […]

Experiment [5] has as its system A375 cells. Nature of the experiment: Light microscopy of A375 cultures (oval vs. fibroblast-like cells). The settings on record: A375, treated cells, 48 h. The source says:
It is known that the A375 cell line has a heterogeneous morphology with a subpopulation of highly metastatic oval cells. […] Thus, it can be concluded that compound 5 affected the two populations in different manners with a stronger effect on the metastatic oval cells.

In experiment [6] the test system is A375 cells. Nature of the experiment: CFSE cell proliferation, A375. The settings on record: A375, 72 h. The protocol:
as §2, with “malignancy. […]” for “malignancy.”
as §3, §4

For experiment [7], the system named is 518A2 cells. Description: Intracellular NO (DAF), 518A2. To be noted: 518A2, 48 h; untreated 44.9 ± 5.9. The protocol:
as §1

In experiment [8] the test system is A375 cells. Nature of the experiment: Fluorescence microscopy of DAPI-stained cells, A375. To be noted: A375, 72 h. How it is done:
as §2

Experiment [9] has as its system 518A2 cells. Description: Ann/PI apoptosis and caspase activation, 518A2. To be noted: 518A2, 48 h.

On to “4-[4-(methylnitrooxy)phenyl]-3-(1,2-dicarba-closo-dodecaboranyl)furan-2(5 H)-one [Compound 5]”, for which the “ROS/RNS production, mean fluorescence (DHR)” value in experiment [1] amounted to 32.67 ± 8; in experiment [3], 65.6 ± 0.9. For the same substance, the “apoptotic shrunken nuclei and apoptotic bodies (DAPI)” value in experiment [2] is reported as 60 ± 2%. Further, the “wound in scratch test” value in [4] was “impossible to distinguish the edges of the wound”. Also, the “% of oval cells” value in experiment [5] (control 46 ± 2.8) stood at 28 ± 2.6%. Also, in [5] (control 54 ± 3.2), the “% of fibroblast-like cells” value is given as 72 ± 7.4%. Besides, in experiment [6], the “elevation of % of undivided cells (CFSE) vs control” value is 38 ± 8%. Moreover, the “intracellular NO, mean fluorescence (DAF)” value in [7] worked out at 97.7 ± 1.2. Further, in experiment [8], the “oblong nuclei with condensed chromatin, typical for apoptosis (DAPI)” value was 25 ± 9%. For the same substance, in experiment [9], the “apoptosis (Ann/PI, caspase)” value is reported as “strong caspase-dependent apoptosis”.
